Where a SMILES comes first, the peptide text is derived from it. [ ]: non-standard residue; d: D form. βAla = NCCC(=O)O
Experiments:
[1] = molecular target: T1, Kappa-type opioid receptor (Homo sapiens, UniProt P41145); test: Binding affinity to KOR (unknown origin) assessed as inhibition constant
Mus musculus [2] = test: Antinociceptive activity in C57BL/6 mouse model of acute thermal pain assessed as paw withdrawal thermal threshold time at 1 mg/kg, po measured after 4 hrs by hot plate test; type: functional
Mu-type opioid receptor [3] = molecular target: T2, Mu-type opioid receptor (Homo sapiens, UniProt P35372); test: Binding affinity to MOR (unknown origin) assessed as inhibition constant by radioligand binding assay
[4] = molecular target: T1, Kappa-type opioid receptor; test: Agonist activity at KOR (unknown origin) by measuring cAMP inhibition; type: functional
Mu-type opioid receptor [5] = molecular target: T2, Mu-type opioid receptor; test: Agonist activity at human MOR expressed in CHO-K1 cells assessed as inhibition of forskolin-stimulated cAMP accumulation incubated for 45 mins by cAMP HTRF assay; type: functional, cell-based
Mus musculus [6] = test: Antinociceptive activity in sc dosed mouse assessed as inhibition of acetic acid-induced abdominal constrictions by writhing test; type: functional
[7] = Half life in C57BL/6 mouse brain at 20 mg/kg, ip by LC-MS/MS analysis; type: ADME, organism-based
[8] = Half life in C57BL/6 mouse plasma at 20 mg/kg, ip by LC-MS/MS analysis; type: ADME, organism-based
[9] = Half life in C57BL/6 mouse […] at 20 mg/kg, ip by LC-MS/MS analysis; type: ADME, organism-based
Mu-type opioid receptor [10] = molecular target: T2, Mu-type opioid receptor; test: Binding affinity to human MOR expressed in HEK293 cells assessed as inhibition constant by GTPgammaS assay; type: cell-based
[11] = molecular target: T3, Delta-type opioid receptor (Homo sapiens, UniProt P41143); test: Binding affinity to human DOR expressed in HEK293 cells assessed as inhibition constant by GTPgammaS assay; type: cell-based
[12] = Tmax in Sprague-Dawley rat at 1 mg/kg, iv by LC-MS analysis; type: ADME, organism-based; details: in vivo
[13] = Half life in human; type: ADME
[14] = molecular target: Kappa-type opioid receptor (Cavia porcellus) (UniProt P41144); test: Agonist activity at KOR in guinea pig brain membranes assessed as stimulation of [35S]GTPgammaS binding relative to control; type: functional, cell membranes; details: Membrane, filed as agonist
[15] = molecular target: T3, Delta-type opioid receptor; test: Binding affinity to DOR (unknown origin) assessed as inhibition constant by ratio ligand binding assay
Mus musculus [16] = test: Antinociceptive activity in sc dosed mouse measured after 60 mins by warm water tail-flick assay; type: functional; details: 1 h
[17] = molecular target: T1, Kappa-type opioid receptor; test: Binding affinity to human KOR expressed in HEK293 cells assessed as inhibition of forskolin-stimulated cAMP accumulation by HTRF assay; type: cell-based
[18] = molecular target: T3, Delta-type opioid receptor; test: Binding affinity to human DOR assessed as inhibition constant
[19] = molecular target: Kappa-type opioid receptor (Mus musculus, UniProt P33534); test: Agonist activity at KOR in mouse vas deferens assessed as inhibition of electrically evoked vas deferens contraction
Mus musculus [20] = test: Antinociceptive activity in sc dosed Ach-induced mouse assessed as inhibition of abdominal constriction; type: functional
[21] = molecular target: T1, Kappa-type opioid receptor; test: Binding affinity to human recombinant KOR assessed as inhibition constant
[22] = molecular target: T1, Kappa-type opioid receptor; test: Binding affinity to wild type human KOR assessed as inhibition constant
[23] = molecular target: T1, Kappa-type opioid receptor; test: Agonist activity at wild type human KOR receptor expressed in CHO cells assessed as stimulation of [35S]GTPgammaS binding measured after 30 mins by scintillation counting assay; type: functional, cell-based
[24] = molecular target: Kappa-type opioid receptor (Cavia porcellus, UniProt P41144); test: Agonist activity at KOR in guinea pig brain membranes assessed as stimulation of [35S]GTPgammaS binding measured after 1 hr by liquid scintillation counting analysis; type: functional, cell membranes, Membrane
Mus musculus [25] = species: Mus musculus; test: Antinociceptive activity in Sprague-Dawley mouse assessed as inhibition of acetic acid-induced abdominal constrictions; type: functional
Mus musculus [26] = species: Mus musculus; test: Antinociceptive activity in Sprague-Dawley mouse assessed as inhibition of acetic acid-induced abdominal constrictions in presence of naloxone; type: functional
Mus musculus [27] = test: Antinociceptive activity in ip dosed mouse assessed as inhibition of acetic acid-induced abdominal constrictions by writhing test; type: functional
[28] = molecular target: T1, Kappa-type opioid receptor; test: Binding affinity to KOR (unknown origin) expressed in CHO-K1 cell membrane assessed as stimulation of [35S]-GTPgammaS binding incubated for 1.5 hrs by scintillation spectroscopy analysis relative DAMGO; type: cell membranes
Mus musculus [29] = species: Mus musculus; test: Analgesic activity in acetic acid induced mouse assessed as assessed as reduction in acetic acid induced writhing […]; type: functional
Mus musculus [30] = test: Analgesic activity in sc dosed acetic acid induced mouse assessed as assessed as reduction in acetic acid induced writhing […]; type: functional
[31] = molecular target: T3, Delta-type opioid receptor; test: Binding affinity human DOR expressed in CHO cells assessed as inhibition constant by radio ligand binding assay; type: cell-based
Mus musculus [32] = species: Mus musculus; test: Antinociceptive activity in C57BL/6 mouse model of acute thermal pain assessed as paw withdrawal thermal threshold time by hot plate test; type: functional
Mus musculus [33] = test: Antinociceptive activity in CD-1 mouse assessed as maximum possible effect at 10 nmol, icv measured after 15 mins by tail-flick test; type: functional; details: 0.25 h
Mus musculus [34] = species: Mus musculus; test: Antinociceptive activity in CFA-induced mechanical allodynia CD1 mouse model assessed as reduction in mechanical allodynia; type: functional
Mus musculus [35] = test: Analgesic activity in iv dosed DBTC-induced neuropathic pain CD1 mouse model assessed as effective dose measured for 1 weeks; type: functional; details: CD1, 168 h
Mus musculus [36] = test: Antinociceptive activity in CFA-induced mechanical allodynia in CD1 mouse model assessed as reduction in nociceptive response by measuring effective dose at ip administration; type: functional
Mus musculus [37] = test: Antinociceptive activity in CFA-induced mechanical allodynia in CD1 mouse model assessed as reduction in nociceptive response by measuring effective dose at iv administration; type: functional

T2 sequence (P35372 whole entry): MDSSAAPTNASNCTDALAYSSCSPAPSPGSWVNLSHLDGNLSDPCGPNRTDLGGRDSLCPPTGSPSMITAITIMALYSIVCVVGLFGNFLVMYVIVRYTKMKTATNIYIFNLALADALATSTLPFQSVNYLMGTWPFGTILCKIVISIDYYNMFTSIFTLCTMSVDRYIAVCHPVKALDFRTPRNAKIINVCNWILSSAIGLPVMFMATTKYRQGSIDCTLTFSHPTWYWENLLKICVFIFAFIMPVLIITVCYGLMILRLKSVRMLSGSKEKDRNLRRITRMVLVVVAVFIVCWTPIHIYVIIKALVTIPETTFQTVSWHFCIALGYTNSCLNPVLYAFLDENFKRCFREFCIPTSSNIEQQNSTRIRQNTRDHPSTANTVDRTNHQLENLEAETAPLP
T1 sequence (P41145 whole entry): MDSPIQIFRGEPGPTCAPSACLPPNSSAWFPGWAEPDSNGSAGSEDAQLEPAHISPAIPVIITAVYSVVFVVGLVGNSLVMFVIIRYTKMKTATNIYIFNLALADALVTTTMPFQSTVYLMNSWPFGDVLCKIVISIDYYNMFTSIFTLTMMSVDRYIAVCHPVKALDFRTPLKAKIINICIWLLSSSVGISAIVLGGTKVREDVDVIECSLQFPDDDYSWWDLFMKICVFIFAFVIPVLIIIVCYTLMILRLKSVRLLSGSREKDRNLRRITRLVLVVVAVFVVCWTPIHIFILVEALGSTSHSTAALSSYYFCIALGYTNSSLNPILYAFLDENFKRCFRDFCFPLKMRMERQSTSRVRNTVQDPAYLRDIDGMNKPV
T3 sequence (P41143 whole entry): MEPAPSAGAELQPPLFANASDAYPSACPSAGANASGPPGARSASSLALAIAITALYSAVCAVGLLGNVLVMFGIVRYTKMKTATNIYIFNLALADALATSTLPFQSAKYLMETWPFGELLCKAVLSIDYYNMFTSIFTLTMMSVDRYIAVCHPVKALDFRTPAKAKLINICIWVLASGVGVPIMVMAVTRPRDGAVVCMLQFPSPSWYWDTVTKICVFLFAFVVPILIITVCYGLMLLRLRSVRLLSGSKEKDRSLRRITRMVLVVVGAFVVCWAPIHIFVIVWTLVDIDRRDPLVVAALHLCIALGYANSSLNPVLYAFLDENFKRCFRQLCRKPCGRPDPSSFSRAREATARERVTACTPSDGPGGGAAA
Sequence of Kappa-type opioid receptor (Mus musculus, UniProt P33534) (P33534 whole entry): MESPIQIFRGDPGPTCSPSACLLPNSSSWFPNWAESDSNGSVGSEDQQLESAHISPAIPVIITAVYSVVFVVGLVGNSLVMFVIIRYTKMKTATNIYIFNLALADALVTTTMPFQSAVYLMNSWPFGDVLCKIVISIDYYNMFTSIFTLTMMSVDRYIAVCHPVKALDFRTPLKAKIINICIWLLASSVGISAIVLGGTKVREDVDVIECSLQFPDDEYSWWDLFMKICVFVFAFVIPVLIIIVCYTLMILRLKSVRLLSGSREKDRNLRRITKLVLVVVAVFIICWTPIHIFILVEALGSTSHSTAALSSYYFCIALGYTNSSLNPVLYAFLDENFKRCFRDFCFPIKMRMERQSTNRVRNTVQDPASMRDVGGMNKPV
Sequence of Kappa-type opioid receptor (Cavia porcellus) (P41144 whole entry): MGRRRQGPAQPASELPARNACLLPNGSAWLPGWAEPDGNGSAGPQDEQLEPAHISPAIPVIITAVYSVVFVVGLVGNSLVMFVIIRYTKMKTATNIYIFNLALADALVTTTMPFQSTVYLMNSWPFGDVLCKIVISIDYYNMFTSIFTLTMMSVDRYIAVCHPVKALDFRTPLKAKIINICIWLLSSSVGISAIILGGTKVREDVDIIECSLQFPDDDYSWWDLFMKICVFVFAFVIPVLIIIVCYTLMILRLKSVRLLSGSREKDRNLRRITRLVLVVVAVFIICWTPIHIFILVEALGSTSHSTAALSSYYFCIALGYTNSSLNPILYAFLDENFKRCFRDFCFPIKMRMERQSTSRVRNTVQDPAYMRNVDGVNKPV
Sequence of Kappa-type opioid receptor (Cavia porcellus, UniProt P41144) (P41144 whole entry): as above

Structure (SMILES): CCCC[C@@H](NC(=O)[C@@H](CC1=CC=CCC1)NC(=O)[C@H](N)Cc1ccccc1)C(=O)N[C@H](CCCNC(=N)N)C(=O)NCc1ccncc1
- Ki [1]: 0.24 nM
- AD50 (Mus musculus [2]): 0.007 mg/kg

Structure (SMILES): COC(=O)[C@@H]1C[C@H](OC(=O)C2=Cc3ccccc3C2)C(=O)[C@H]2[C@@]1(C)CC[C@H]1C(=O)O[C@H](c3ccoc3)C[C@]21C
- Ki [1]: 49.7 nM
- Ki (Mu-type opioid receptor [3]): 538 nM
- EC50 [4]: 853 nM
- EC50 (Mu-type opioid receptor [5]): 49.5 nM

Structure (SMILES): C[C@H]1[C@H]2Cc3ccc(O)cc3[C@@]1(C)CCN2CCc1ccccc1
- ED50 (Mus musculus [6]; Mus musculus, read-out: ED50): 6.3 mg/kg

Structure (SMILES): COC(=O)[C@@H]1C[C@H](OC(C)=O)[C@H](O)[C@H]2[C@@]1(C)CC[C@H]1C(=O)O[C@H](c3ccoc3)C[C@]21C [1-ALPHA-HYDROXYSALVINORIN A]
- half-life [7]: 3.75 h
- half-life [8]: 3.75 h
- half-life [9]: 3.75 h

Structure (SMILES): N=C(N)Nc1ccc2c3c([nH]c2c1)[C@@H]1Oc2c(O)ccc4c2[C@@]12CCN(CC1CC1)[C@H](C4)[C@]2(O)C3
- Ki (Mu-type opioid receptor [10]): 20.3 nM
- Ki [11]: 81.8 nM

Structure (SMILES): CCCC[C@@H](NC(=O)[C@@H](CC1=CC=CCC1)NC(=O)[C@H](N)Cc1ccccc1)C(=O)N[C@H](CCCNC(=N)N)C(N)=O
- Ki [1]: < 1 nM

Structure (SMILES): Cc1cc(C)cc([C@@H]2CCCN2Cc2ccc(Oc3ccc(C(N)=O)cc3F)cc2)c1 [ATICAPRANT]
- Tmax [12]: 1 h
- half-life [13]: 21 h

Structure (SMILES): CCCCN(CCc1ccccc1)CCc1cccc(O)c1
- Ki (Mu-type opioid receptor [3]): 360 nM
- Activity [14]: 45.5%
- Ki [15]: 2700 nM

Structure (SMILES): CN(C(=O)/C=C/c1ccoc1)[C@@H]1CC[C@@]2(O)[C@H]3Cc4ccc(O)c5c4[C@@]2(CCN3CC2CC2)[C@H]1O5 [NALFURAFINE]
- ED50 (Mus musculus [16]; Mus musculus, read-out: ED50): 0.003 mg/kg
- ED50 (Mus musculus [6]; Mus musculus, read-out: ED50): 0.062 mg/kg

Structure (SMILES): O=C1CNC(=O)[C@H](Cc2ccccc2)NC(=O)[C@@H](Cc2c[nH]c3ccccc23)NC(=O)CCN1 (cyclo(FG[βAla][dW]))
- Ki [17]: > 10 nM
- Ki [18]: > 10 nM

Structure (SMILES): CC(C)=CCN1CC[C@]2(C)c3cc(O)ccc3C[C@H]1[C@H]2C [(+)-PENTAZOCINE]
- Ki [1]: 7.6 nM
- EC50 [4]: 40 nM
- Ki [15]: 62 nM

Structure (SMILES): Oc1ccc2c(c1)[C@@]13CCCC[C@H]1[C@@H](C2)N(CC1CCC1)CC3 [BUTORPHAN]
- ED50 (Mus musculus [16]): 7.3 nmol
- ED50 (Mus musculus [6]): 0.79 nmol

Structure (SMILES): COC(=O)N1CCN(C(=O)Cc2ccc(Cl)c(Cl)c2)C(CN2CCCC2)C1 (configuration not stated)
- IC50 [19]: 0.041 nM
- ED50 (Mus musculus [20]): 0.00052 mg/kg

Structure (SMILES): CN(C(=O)C(c1ccccc1)c1ccccc1)[C@H](CN1CC[C@H](O)C1)c1ccccc1 [ASIMADOLINE]
- Ki [21]: 5.6 nM

Structure (SMILES): CC(C)=CCN1CC[C@@]2(C)c3cc(O)ccc3CC1C2C (some centres not stated) [PENTAZOCINE]
- Ki [1]: 7.6 nM
- EC50 [4]: 40 nM
- Ki [15]: 62 nM

Structure (SMILES): O=C(O[C@@H]1[C@@H]2[C@H]3C[C@@H](C[C@H]2C(=O)O[C@H]1c1ccoc1)OC3=O)c1ccccc1
- Ki [22]: 9 nM
- EC50 [23]: 2 nM
- Ki [24]: > 5000 nM

Structure (SMILES): C[C@H]1[C@@H]2Cc3ccc(O)cc3[C@]1(C)CCN2CC1CC1
- ED50 (Mus musculus [25]): 0.47 mg/kg
- ED50 (Mus musculus [26]): 0.077 mg/kg

Structure (SMILES): C[C@H]1[C@H]2Cc3ccc(C(N)=O)cc3[C@@]1(C)CCN2CC1CC1
- Ki [18]: 4.9 nM
- ED50 (Mus musculus [27]): 0.21 nmol

Structure (SMILES): C[N+]1(CC2CC2)CC[C@]23c4c5ccc(O)c4O[C@H]2C(=O)CC[C@@]3(O)[C@H]1C5 (some centres not stated) [METHYLNALTREXONE]
- Ki (Mu-type opioid receptor [3]): 10 nM
- EC50 [4]: 6.7 nM
- Ki [28]: ~30 nM

Structure (SMILES): Cc1ccc(CSc2nnc(-c3ccccn3)n2Cc2ccco2)cc1C(F)(F)F
- Ki (Mu-type opioid receptor [3]): 1900 nM
- Ki [15]: 5350 nM

Structure (SMILES): CC(C)C[C@@H](NC(=O)[C@@H](CC1=CC=CCC1)NC(=O)[C@H](N)Cc1ccccc1)C(=O)N[C@H](CCCN)C(=O)N1CCOCC1
- Ki [1]: 0.08 nM
- AD50 (Mus musculus [2]): 0.013 mg/kg

Structure (SMILES): CC(C)C[C@@H](NC(=O)[C@@H](Cc1ccccc1)NC(=O)[C@H](N)Cc1ccccc1)C(=O)N[C@H](CCCCN)C(=O)N1CCC(N)(C(=O)O)CC1 [listing 1 of 2 here]
- Ki [1]: 0.32 nM
- Ki (Mu-type opioid receptor [3]): > 10000 nM

Structure (SMILES): O=C(N[C@@H]1C=C[C@H]2[C@H]3Cc4ccc(O)c5c4[C@@]2(CCN3CC2CC2)[C@H]1O5)c1cccc(I)c1
- Ki (Mu-type opioid receptor [3]): 0.021 nM
- Ki [22]: 0.006 nM
- Ki [18]: 0.08 nM
- ED50 (Mus musculus [29]): 0.33 mg/kg
- ED50 (Mus musculus [30]): 1 mg/kg

Structure (SMILES): C#Cc1occc1[C@@H]1C[C@@]2(C)[C@@H](CC[C@@]3(C)[C@H](C(=O)OC)C[C@H](OC(C)=O)C(=O)[C@@]32C)C(=O)O1
- Ki [1]: 2.5 nM

Structure (SMILES): CN1CC[C@]23c4c5ccc(O)c4O[C@H]2C(=O)CC[C@@]3(OCCCc2ccccc2)[C@H]1C5
- Ki (Mu-type opioid receptor [10]): 0.073 nM
- Ki [22]: 0.3 nM
- Ki [31]: 0.13 nM
- AD50 (Mus musculus [32]): 0.0007 mg/kg

Structure (SMILES): O=C(N[C@@H]1CC[C@@]2(O)[C@H]3Cc4ccc(O)c5c4[C@@]2(CCN3CC2CC2)[C@H]1O5)c1ccc2ccccc2c1
- ED50 (Mus musculus [33]): 18.7 pmol

Structure (SMILES): CC(C)C[C@@H](NC(=O)[C@@H](Cc1ccccc1)NC(=O)[C@H](N)Cc1ccccc1)C(=O)N[C@H](CCCCN)C(=O)N1CCC(N)(C(=O)O)CC1 [listing 2 of 2 here]
- ED50 (Mus musculus [34]): 0.07 mg/kg
- ED50 (Mus musculus [35]): 0.3 mg/kg
- ED50 (Mus musculus [36]): 0.3 mg/kg
- ED50 (Mus musculus [37]): 0.38 mg/kg

Structure (SMILES): O=C(N[C@@H]1CC[C@@]2(O)[C@H]3Cc4ccc(O)c5c4[C@@]2(CCN3CC2CC2)[C@H]1O5)c1cc[n+](Cc2ccccc2)cc1
- Ki [1]: 3.46 nM
- Ki (Mu-type opioid receptor [3]): 3.46 nM
- Ki [18]: 722 nM
